Laboratory results published in US20060258581A1, “Methods and composition for derepressions of IAP-inhibited caspase” (priority 2001, published 2006).
Where no end group is shown, it is not given here. [ ]: non-standard residue; d: D form. d2Nal = N[C@H](Cc1ccc2ccccc2c1)C(=O)O

How the values were obtained:
[1] = tested on: NCI panel of 60 tumor cell lines; test: NCI panel of 60 tumor cell lines, 48 hours, protein-based colorimetric assay; design: species or system human
Experimental: Selected polyphenylurea compounds were tested on the National Cancer Institute (NCI) panel of 60 tumor cell lines (see FIG. 28a and FIG. 29).

full length XIAP = full length XIAP (Homo sapiens, UniProt P98170); test: Potency of IAP antagonists in vitro (Table VIII; caspase derepression / SMAC competition with full length XIAP)
full length XIAP, sequence (P98170 whole entry): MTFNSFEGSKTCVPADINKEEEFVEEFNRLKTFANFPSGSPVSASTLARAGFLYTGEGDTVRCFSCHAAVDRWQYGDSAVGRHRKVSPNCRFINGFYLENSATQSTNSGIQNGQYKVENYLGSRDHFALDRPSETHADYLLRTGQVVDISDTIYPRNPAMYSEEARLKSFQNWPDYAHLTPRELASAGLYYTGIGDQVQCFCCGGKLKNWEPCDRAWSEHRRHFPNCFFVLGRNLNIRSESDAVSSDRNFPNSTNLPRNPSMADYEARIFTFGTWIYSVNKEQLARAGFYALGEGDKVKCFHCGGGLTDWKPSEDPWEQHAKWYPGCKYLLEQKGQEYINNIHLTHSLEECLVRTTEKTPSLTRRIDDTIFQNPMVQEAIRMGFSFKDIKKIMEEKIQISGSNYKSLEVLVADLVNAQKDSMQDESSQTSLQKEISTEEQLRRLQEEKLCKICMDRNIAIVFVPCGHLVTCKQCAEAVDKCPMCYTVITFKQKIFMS

Jurkat leukemia cells = test: Jurkat leukemia cell death, Annexin V/propidium iodide flow cytometry; assay type: cell-based; settings: Homo sapiens, Jurkat, 20 h, 20 hours, read-out: % nonviable cells
Experimental: (§1) The following assay was used to test the ability of individual compounds from the TPI 1396 and TPI 1391 libraries to induce apoptosis of cultured tumor cell lines. Each of the compounds listed in Table IX was individually added to Jurkat leukemia cells (6.25×10^5 cells/mL) in RPMI containing 2.5% FBS at various concentrations for 20 hours. After incubation, cells were washed and stained with FITC-conjugated Annexin V antibody and propidium iodide (Biovision; Mountain View, Calif.). Cells were incubated for 20 minutes at room temperature in the dark and fluorescence was measured by flow cytometry (FACScan, Immunocytometry system; Becton-Dickinson; San Jose, Calif.). Cells staining positive for Annexin V were deemed non-viable.
(§2) The TPI I396-34 and TPI 1391-28 compounds were further tested as set forth below.

XIAP-inhibited caspase-3 = target: T1, XIAP-inhibited caspase-3 (Homo sapiens, UniProt P98170); test: IAP derepression assay: Ac-DEVD-AFC hydrolysis by caspase-3 in the presence of GST-XIAP; assay type: biochemical
T1 construct: in a caspase derepression assay using full length XIAP; made in house; host or cells: bacteria
T1 sequence (P98170 whole entry): as above
Experimental: The ratio of Vmax for hydrolysis of Ac-DEVD-AFC in the presence and absence of the candidate mixture was calculated and used to identify those that contain an agent that derepresses an IAP-inhibited caspase.
(§3) Each mixture was aliquoted in a 25 microliter volume and in duplicate to a well of a 96 well microtiter plate. […] Fluorescence of liberated AFC was immediately detected from each well for 30 minutes at 30 second intervals. The Vmax for hydrolysis of AC-DEVD-AFC from each well was measured using the softmax software package.

[2] = tested on: caspase-3 and caspase-7 activity in Jurkat cells; test: Caspase-3 and caspase-7 activity in whole Jurkat cells, cell permeable substrate; assay type: cell-based; settings: 8 μM, 20 hours
[3] = tested on: chronic lymphocytic leukemia (CLL) B-cells; test: Freshly isolated CLL B-cells from patients, annexin-V/propidium iodide; assay type: cell-based, human; settings: 20-24 hours
From the text: (§4) Since many tumor and leukemia cell lines proliferate faster than normal cells, it was investigated whether the polyphenylurea compounds could induce apoptosis of non-replicating malignant cells. […] Thus, cell replication is not required for sensitivity to the disclosed poly-phenylurea compounds.

[4] = tested on: acute myelogenous leukemia (AML) blasts; test: Freshly isolated AML leukemic blasts from patients, annexin-V; assay type: cell-based, human; settings: 20-24 hours
From the text: as §4

[5] = target: BIR3RING (XIAP fragment) (human) (UniProt P98170); test: fluorescence polarization; 20 nM rhodamine-SMAC, BIR3RING titrated
BIR3RING (XIAP fragment) (human), sequence (P98170 243-497 limits assumed): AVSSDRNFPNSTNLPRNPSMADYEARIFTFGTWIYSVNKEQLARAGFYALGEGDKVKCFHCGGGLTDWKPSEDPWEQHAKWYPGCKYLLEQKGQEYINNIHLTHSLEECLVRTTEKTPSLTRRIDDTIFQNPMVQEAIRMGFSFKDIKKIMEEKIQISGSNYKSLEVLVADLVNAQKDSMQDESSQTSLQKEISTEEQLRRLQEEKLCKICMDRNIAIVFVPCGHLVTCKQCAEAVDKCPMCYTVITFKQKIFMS

[6] = target: GST-BIR2 (glutathione-S-transferase-BIR2 fusion protein of XIAP) (human) (UniProt P98170); test: fluorescence polarization; 20 nM rhodamine-SMAC, GST-BIR2 0 to 495 nM
GST-BIR2 (glutathione-S-transferase-BIR2 fusion protein of XIAP) (human), sequence (P98170 124-240): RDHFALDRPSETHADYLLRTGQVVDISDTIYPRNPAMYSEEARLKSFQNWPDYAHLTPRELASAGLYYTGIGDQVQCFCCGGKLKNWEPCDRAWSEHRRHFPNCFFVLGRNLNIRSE

Smac-7 mer/XIAP-BIR2 = test: Competition assay Smac-7 mer/XIAP-BIR2 IC-50 uM | AVG
[7] = tested on: mouse embryo fibroblasts (MEFs) from XIAP -/- mice; test: Mouse embryo fibroblasts from XIAP -/- and wild type mice, MTT assay; assay type: cell-based; settings: non-transformed versus SV40 large T transformed MEFs
Experimental: Cells were either tested directly at low passage (FIGS. 38A and C) or after transformation by infection with a retrovirus encoding SV40 large T antigen (FIGS. 38B and D). […] Cell viability was measured by MTT assay, expressing data as a percentage relative to control, untreated cells. Data shown in FIG. 38A-D represent mean±standard deviation of triplicate determinations.

caspase-3 = target: T2, caspase-3 (Homo sapiens, UniProt P42574); test: Caspase assay without XIAP (candidate mixture and caspase 3 only); assay type: biochemical; settings: TPI 1239 library, absence of XIAP
T2 construct: made in house; host or cells: bacteria
T2 sequence (P42574 29-175 limits assumed): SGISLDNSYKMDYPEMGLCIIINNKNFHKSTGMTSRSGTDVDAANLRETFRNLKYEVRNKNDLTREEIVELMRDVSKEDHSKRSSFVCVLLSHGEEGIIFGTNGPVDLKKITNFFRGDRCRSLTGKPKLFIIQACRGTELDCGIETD
T2 sequence (P42574 176-277 limits assumed): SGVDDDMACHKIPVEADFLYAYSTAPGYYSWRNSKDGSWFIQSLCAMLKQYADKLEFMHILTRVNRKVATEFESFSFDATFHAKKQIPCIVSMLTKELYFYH
Experimental: Caspase activity was assayed by release of 7-amino-4-trifluoromethyl-coumarin (AFC) from Ac-DEVD-AFC synthetic peptides using a Molecular Devices Spectromax 340 (see Zhou et al., J. Biol. Chem. 272:7797-7800 (1997)). […] The ratio of Vmax for hydrolysis of Ac-DEVD-AFC in the presence and absence of the candidate mixture was calculated and used to identify those that contain an agent that derepresses an IAP-inhibited caspase.
as §3, with “Screening of each mixture from the DCR390, TPI 1239 or TPI 1328 library, respectively, using the above described assay was carried out as follows. Each” for “Each”
Results of the screen for the DCR390 library are shown in Table I. Sets of mixtures having the same position fixed with different respective amino acids are arranged in 6 sections identified with the position number. […] The mixtures in each section are arranged in descending order according to apparent velocity in the second column.

[8] = Jurkat leukemia cell death, Annexin V/propidium iodide flow cytometry; assay type: cell-based; settings: human, 20 hours, read-out: % nonviable cells
Experimental: as §1, §2

CCCC[C@@H](CN(C(=O)Nc1ccccc1)[C@@H](CNC(=O)Nc1ccccc1)CC1CCCCC1)N(CCc1ccc(O)cc1)C(=O)Nc1ccccc1 [TPI 1396-28]
average (mean) LD50 for the 60 cell lines [1]: > 70 µM | EC50 (full length XIAP): > 134000 nM | cytotoxicity at 1 µM (Jurkat leukemia cells; 1 μM): 13% | cytotoxicity at 10 µM (Jurkat leukemia cells; 10 μM): 13% | cytotoxicity at 25 µM (Jurkat leukemia cells; 25 μM): 14% | cytotoxicity at 50 µM (Jurkat leukemia cells; 50 μM): 13% | Activity* (relative caspase-3 activity: Vmax in the presence of compound / Vmax of controls having caspase-3 and XIAP) (XIAP-inhibited caspase-3; XIAP derepression assay): 1.3 | activity in the caspase derepression assay using full length XIAP (XIAP-inhibited caspase-3; in words): inactive analog | caspase activation in whole cells [2]: did not induce caspase activation | apoptosis induction [3]: did not induce apoptosis | apoptosis induction [4]: did not induce apoptosis

rhodamine labeled SMAC (rhodamine-SMAC) (peptide)
Kd [5]: 80 nM | Kd [6]: 100 nM

(D-Trp)-(D-Trp)-(L-Trp)-(D-Nal) ([dW][dW]W[d2Nal]) [TPI 1332-24]
IC50 (Smac-7 mer/XIAP-BIR2): 5000 ± 4800 nM

COc1cccc2c1C(=O)c1c(O)c3c(c(O)c1C2=O)C[C@@](O)(C(C)=O)C[C@@H]3O[C@H]1C[C@H](N)[C@H](O)[C@H](C)O1 [daunorubicin]
selectivity for transformed cells [7]: do not display selectivity for transformed cells

H-AVPIAQK-NH2 [SMAC, H-Ala-Val-Pro-Ile-Ala-Gln-Lys-NH2, reference compound]
Vmax(mix + casp3) / Vmax(casp3) (caspase-3): 0.8 ± 0.0 | cytotoxicity at 20 hours, 5 µM ([8]; 5 μM): 12% | cytotoxicity at 20 hours, 25 µM ([8]; 25 μM): 16% | cytotoxicity at 20 hours, 50 µM ([8]; 50 μM): ~16% | cytotoxicity at 20 hours, 100 µM ([8]; 100 μM): 15% | Vmax(mix + casp3 + XIAP) / Vmax(casp3 + XIAP) (XIAP-inhibited caspase-3; TPI 1239 library): 3.8 ± 1.7
